Laboratory results from publication PMC7277544, “A Fluorescence-Based Method to Measure ADP/ATP Exchange of Recombinant Adenine Nucleotide Translocase in Liposomes” (Biomolecules, 2020).

Biological target: T1, adenine nucleotide translocase 1 (ANT1) (Mus musculus, UniProt P48962)
T1 construct: gene Slc25a4; recombinant murine ANT1 from E. coli inclusion bodies, reconstituted into liposomes
T1 sequence (P48962 2-298): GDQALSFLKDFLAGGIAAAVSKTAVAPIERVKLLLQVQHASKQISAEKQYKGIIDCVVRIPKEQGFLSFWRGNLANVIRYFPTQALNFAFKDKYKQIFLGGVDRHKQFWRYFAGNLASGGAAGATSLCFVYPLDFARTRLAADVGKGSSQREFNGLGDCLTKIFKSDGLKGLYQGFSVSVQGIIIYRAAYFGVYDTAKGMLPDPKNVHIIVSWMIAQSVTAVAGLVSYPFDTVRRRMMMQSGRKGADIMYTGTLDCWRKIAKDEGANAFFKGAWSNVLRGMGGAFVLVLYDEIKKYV
Assay: 3H-ATP uptake into ANT1 proteoliposomes (transport rate)
Type: biochemical

Nc1ncnc2c1ncn2[C@@H]1O[C@H](COP(=O)(O)OP(=O)(O)OP(=O)(O)O)[C@@H](O)[C@H]1O [ATP, adenosine triphosphate]
3H-ATP uptake into ANT1 proteoliposomes (transport rate): 2.90 ± 0.47 mmol/min/g
